In ChEMBL document CHEMBL5543147, “Discovery and Characterization of a Novel Cereblon-Recruiting PRC1 Bridged PROTAC Degrader” (J Med Chem, 2024):
pKd: −log10 of the molar value. The source made the active and inactive calls. The calls are words filed in the database; no cut-off is given here.

Columns and labels:
[1] = Drug concentration in Swiss albino mouse plasma at 50 mg/kg,ip administration measured after 8 hrs by LC-MS/MS analysis; type: ADME, organism-based
[2] = molecular target: Protein cereblon/E3 ubiquitin-protein ligase RING1 (Homo sapiens) (UniProt Q96SW2+Q06587); experiment: PROTAC activity at CRBN/RING1A in human K562 cells assessed as degradation of RING1A protein expression at 1 to 10 uM incubated for 24 hrs by Western blotting analysis; type: cell-based; settings: dose 1-10 µM
Sequence of Protein cereblon/E3 ubiquitin-protein ligase RING1 (Homo sapiens) (Q06587 whole entry, looked up): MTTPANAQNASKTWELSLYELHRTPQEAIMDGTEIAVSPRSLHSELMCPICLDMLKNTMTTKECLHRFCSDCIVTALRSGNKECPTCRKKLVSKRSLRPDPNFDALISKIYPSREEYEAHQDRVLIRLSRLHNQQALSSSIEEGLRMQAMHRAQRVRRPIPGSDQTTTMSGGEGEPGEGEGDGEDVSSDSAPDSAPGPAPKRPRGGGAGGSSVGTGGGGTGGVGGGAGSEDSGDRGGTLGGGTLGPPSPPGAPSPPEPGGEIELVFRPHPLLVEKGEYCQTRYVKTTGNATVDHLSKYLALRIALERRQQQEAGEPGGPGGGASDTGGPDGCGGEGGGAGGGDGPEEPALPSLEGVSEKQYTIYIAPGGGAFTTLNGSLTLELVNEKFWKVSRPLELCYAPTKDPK
Sequence of Protein cereblon/E3 ubiquitin-protein ligase RING1 (Homo sapiens) (Q96SW2 whole entry, looked up): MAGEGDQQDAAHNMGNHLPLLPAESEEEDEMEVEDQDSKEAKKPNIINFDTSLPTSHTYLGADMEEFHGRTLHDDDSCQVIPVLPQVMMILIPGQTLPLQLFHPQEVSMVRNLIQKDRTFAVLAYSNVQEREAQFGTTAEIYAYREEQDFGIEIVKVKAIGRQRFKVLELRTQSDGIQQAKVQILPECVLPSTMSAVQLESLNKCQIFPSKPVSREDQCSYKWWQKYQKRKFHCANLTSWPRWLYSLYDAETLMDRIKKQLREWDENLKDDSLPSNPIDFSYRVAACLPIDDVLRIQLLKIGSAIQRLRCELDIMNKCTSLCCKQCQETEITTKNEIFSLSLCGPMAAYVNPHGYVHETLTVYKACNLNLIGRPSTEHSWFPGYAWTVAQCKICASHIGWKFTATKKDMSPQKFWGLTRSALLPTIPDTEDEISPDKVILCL

K562 [3] = experiment: Antiproliferative activity against human K562 cells assessed as cell growth inhibition incubated for 7 days by WST-8 assay; type: functional; settings: K562, 168 h, time 7 day
[4] = molecular target: Protein cereblon/Zinc finger protein Aiolos (Homo sapiens) (UniProt Q96SW2+Q9UKT9); experiment: PROTAC activity at CRBN/IKZF3 in human K562 cells assessed as degradation of IKZF3 protein at 0.1 to 10 uM incubated for 4 hrs by Western blotting analysis; type: cell-based; settings: dose 0.1-10 µM
[5] = molecular target: T1, Protein cereblon/E3 ubiquitin-protein ligase RING2 (Homo sapiens, UniProt Q96SW2+Q99496); experiment: PROTAC activity at CRBN/RING1B in human K562 cells assessed as degradation of RING1B protein expression at 10 uM incubated for 20 hrs in presence of MG132 by Western blotting analysis; type: cell-based
T1 sequence (Q96SW2 whole entry): as the sequence (Q96SW2 whole entry, looked up) above
T1 sequence (Q99496 2-336 partner limits assumed): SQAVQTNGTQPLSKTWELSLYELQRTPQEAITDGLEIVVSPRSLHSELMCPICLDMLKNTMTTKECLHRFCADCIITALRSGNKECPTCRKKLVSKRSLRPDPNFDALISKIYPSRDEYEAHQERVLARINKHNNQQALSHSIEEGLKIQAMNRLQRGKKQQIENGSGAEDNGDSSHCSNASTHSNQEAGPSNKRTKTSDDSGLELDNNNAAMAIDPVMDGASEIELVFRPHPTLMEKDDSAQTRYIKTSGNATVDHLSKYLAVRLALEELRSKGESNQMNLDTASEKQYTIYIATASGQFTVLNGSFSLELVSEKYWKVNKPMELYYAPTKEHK

MDA-MB-468 [6] = experiment: Inhibition of colony formation in human MDA-MB-468 cells at 1 to 10 uM incubated for 14 days by crystal violet staining based assay; type: functional, cell-based; settings: dose 1-10 µM, time 14.0 day
786-0 [7] = experiment: Antiproliferative activity against human 786-0 cells assessed as inhibition of cell growth at 15 uM incubated for 7 days by WST-8 assay; type: functional, cell-based; settings: time 7.0 day
MDA-MB-468 [8] = experiment: Induction of PRC1 degradation in human MDA-MB-468 cells assessed as reduction of H2AK119ub chromatin mark at 5 uM incubated for 24 hrs by Western blotting analysis; type: cell-based
[9] = molecular target: T1, Protein cereblon/E3 ubiquitin-protein ligase RING2; experiment: PROTAC activity at CRBN/RING1B in human MDA-MB-468 cells assessed as degradation of RING1B protein expression at 5 uM incubated for 24 hrs by Western blotting analysis; type: cell-based
K562 [10] = experiment: Induction of PRC2 degradation in human K562 cells assessed as reduction of H3K27me3 chromatin mark at 0.1 to 10 uM incubated for 24 hrs by Western blotting analysis; type: cell-based; settings: dose 0.1-10 µM
[11] = Drug concentration in Swiss albino mouse plasma at 50 mg/kg,ip administration measured after 2 hrs by LC-MS/MS analysis; type: ADME, organism-based
786-0 [12] = experiment: Induction of PRC1 degradation in human 786-0 cells with defective VHL assessed as reduction of H2AK119ub chromatin mark at 10 uM incubated for 24 hrs by Western blotting analysis; type: cell-based
PC-3M = experiment: Induction of PRC2 degradation in human PC-3M cells assessed as reduction of H3K27me3 chromatin mark at 1 uM incubated for 24 hrs by Western blotting analysis; type: cell-based
[13] = molecular target: T2, Protein cereblon/Histone-lysine N-methyltransferase EZH2 (Homo sapiens) (UniProt Q15910+Q96SW2); experiment: PROTAC activity at CRBN/EZH2 in human PC-3M cells assessed as degradation of EZH2 protein expression at 0.2 to 5 uM incubated for 24 hrs by Western blotting analysis; type: cell-based; settings: dose 0.2-5 µM
T2 sequence (Q15910 whole entry, looked up): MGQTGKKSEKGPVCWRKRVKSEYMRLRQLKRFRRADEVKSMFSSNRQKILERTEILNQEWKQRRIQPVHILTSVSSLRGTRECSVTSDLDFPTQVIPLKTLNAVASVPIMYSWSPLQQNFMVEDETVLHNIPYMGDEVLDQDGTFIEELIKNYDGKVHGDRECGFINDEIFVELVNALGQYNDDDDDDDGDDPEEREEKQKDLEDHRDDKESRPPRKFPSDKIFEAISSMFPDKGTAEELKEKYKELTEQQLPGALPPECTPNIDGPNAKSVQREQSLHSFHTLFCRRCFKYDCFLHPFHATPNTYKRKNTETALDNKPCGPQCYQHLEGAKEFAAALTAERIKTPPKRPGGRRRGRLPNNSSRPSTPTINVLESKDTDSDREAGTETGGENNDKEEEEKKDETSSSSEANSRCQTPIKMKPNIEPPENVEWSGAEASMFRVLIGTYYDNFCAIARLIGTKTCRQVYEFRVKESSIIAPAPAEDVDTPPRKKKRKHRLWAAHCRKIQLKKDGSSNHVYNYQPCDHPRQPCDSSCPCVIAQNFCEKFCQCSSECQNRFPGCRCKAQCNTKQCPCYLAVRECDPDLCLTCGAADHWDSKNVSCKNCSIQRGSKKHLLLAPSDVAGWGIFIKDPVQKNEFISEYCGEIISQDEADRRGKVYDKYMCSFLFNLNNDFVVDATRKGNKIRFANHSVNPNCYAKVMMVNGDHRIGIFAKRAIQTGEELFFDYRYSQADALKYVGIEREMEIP
T2 sequence (Q96SW2 whole entry, looked up): as the sequence (Q96SW2 whole entry, looked up) above

[14] = molecular target: Protein cereblon/Polycomb protein SUZ12 (Homo sapiens) (UniProt Q15022+Q96SW2); experiment: PROTAC activity at CRBN/SUZ12 in human K562 cells assessed as degradation of SUZ12 protein expression at 0.1 to 10 uM incubated for 24 hrs by Western blotting analysis; type: cell-based; settings: dose 0.1-10 µM
[15] = molecular target: T3, Protein cereblon/Polycomb complex protein BMI-1 (Homo sapiens, UniProt Q96SW2+P35226); experiment: PROTAC activity at […] in human K562 cells assessed as degradation of BMI1 protein expression at 10 uM measured after 12 hrs by Western blotting analysis relative to control; type: cell-based
Target sequence in this assay (P35226 whole entry, looked up): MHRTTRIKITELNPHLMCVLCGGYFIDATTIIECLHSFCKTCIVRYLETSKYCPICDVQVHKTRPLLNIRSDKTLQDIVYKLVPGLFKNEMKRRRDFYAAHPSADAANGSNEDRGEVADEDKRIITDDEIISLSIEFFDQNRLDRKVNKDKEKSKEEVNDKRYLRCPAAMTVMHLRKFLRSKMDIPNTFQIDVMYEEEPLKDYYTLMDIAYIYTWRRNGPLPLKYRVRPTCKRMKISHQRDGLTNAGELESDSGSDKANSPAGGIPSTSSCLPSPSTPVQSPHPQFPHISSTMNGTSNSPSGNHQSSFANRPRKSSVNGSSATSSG
Target sequence in this assay (Q96SW2 whole entry, looked up): as the sequence (Q96SW2 whole entry, looked up) above

[16] = molecular target: Protein cereblon/Polycomb protein EED (Homo sapiens, UniProt O75530+Q96SW2); experiment: PROTAC activity at CRBN/EED in human K562 cells assessed as degradation of EED mRNA expression at 10 uM incubated for 20 hrs by RT-qPCR analysis; type: cell-based
Sequence of Protein cereblon/Polycomb protein EED (O75530 2-441 limits assumed): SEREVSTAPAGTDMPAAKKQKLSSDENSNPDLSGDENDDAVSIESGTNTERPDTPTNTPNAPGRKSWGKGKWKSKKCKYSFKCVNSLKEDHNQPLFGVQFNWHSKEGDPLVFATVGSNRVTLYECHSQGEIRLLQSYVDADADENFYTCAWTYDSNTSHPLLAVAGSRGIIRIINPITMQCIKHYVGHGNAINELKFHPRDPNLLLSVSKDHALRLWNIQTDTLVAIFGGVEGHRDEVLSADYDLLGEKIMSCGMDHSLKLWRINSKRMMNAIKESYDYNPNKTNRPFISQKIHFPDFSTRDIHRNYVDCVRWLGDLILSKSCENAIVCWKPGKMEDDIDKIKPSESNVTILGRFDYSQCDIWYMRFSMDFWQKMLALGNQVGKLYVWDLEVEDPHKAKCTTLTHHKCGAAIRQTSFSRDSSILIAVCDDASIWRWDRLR
Sequence of Protein cereblon/Polycomb protein EED (Q96SW2 whole entry partner, the tested form may be a part): as the sequence (Q96SW2 whole entry, looked up) above

Polycomb protein EED = Polycomb protein EED (Homo sapiens, UniProt O75530); experiment: Binding affinity to EED (75 to 441 residues) (unknown origin) expressed in Escherichia coli BL21 (DE3) assessed as dissociation constant by isothermal titration calorimetry
[17] = molecular target: T3, Protein cereblon/Polycomb complex protein BMI-1; experiment: PROTAC activity at CRBN/BIM1 in human MDA-MB-468 cells assessed as degradation of BMI1 protein expression at 5 uM incubated for 24 hrs by Western blotting analysis; type: cell-based
Target sequence in this assay (P35226 whole entry, looked up): as the sequence (P35226 whole entry, looked up) above
Target sequence in this assay (Q96SW2 whole entry, looked up): as the sequence (Q96SW2 whole entry, looked up) above

[18] = molecular target: Cereblon/Ikaros (Homo sapiens) (UniProt Q96SW2+Q13422); experiment: PROTAC activity at CRBN/IKZF1 in human K562 cells assessed as degradation of IKZF1 protein at 0.1 to 10 uM incubated for 4 hrs by Western blotting analysis; type: cell-based; settings: dose 0.1-10 µM
[19] = molecular target: Protein cereblon/RING1 and YY1-binding protein (Homo sapiens) (UniProt Q96SW2+Q8N488); experiment: PROTAC activity at CRBN/RYBP in human K562 cells assessed as degradation of RYBP protein expression at 1 to 10 uM incubated for 24 hrs by Western blotting analysis; type: cell-based; settings: dose 1-10 µM
[20] = molecular target: T1, Protein cereblon/E3 ubiquitin-protein ligase RING2; experiment: PROTAC activity at CRBN/RING1B in human K562 cells assessed as degradation of RING1B protein expression at 10 uM incubated for 20 hrs in presence of pomalidomide by Western blotting analysis; type: cell-based
[21] = molecular target: T3, Protein cereblon/Polycomb complex protein BMI-1; experiment: PROTAC activity at […] in human K562 cells assessed as degradation of BMI1 protein expression at 10 uM incubated for 20 hrs in presence of EED226 by Western blotting analysis; type: cell-based
Target sequence in this assay (P35226 whole entry, looked up): as the sequence (P35226 whole entry, looked up) above
Target sequence in this assay (Q96SW2 whole entry, looked up): as the sequence (Q96SW2 whole entry, looked up) above

[22] = molecular target: T3, Protein cereblon/Polycomb complex protein BMI-1; experiment: PROTAC activity at […] in human K562 cells assessed as degradation of BMI1 protein expression at 10 uM measured after 4 hrs by Western blotting analysis; type: cell-based
Target sequence in this assay (P35226 whole entry, looked up): as the sequence (P35226 whole entry, looked up) above
Target sequence in this assay (Q96SW2 whole entry, looked up): as the sequence (Q96SW2 whole entry, looked up) above

[23] = molecular target: T3, Protein cereblon/Polycomb complex protein BMI-1; experiment: PROTAC activity at CRBN/BIM1 in human K562 cells assessed as degradation of BMI1 protein expression incubated for 24 hrs by Western blotting analysis; type: cell-based
786-0 [24] = experiment: Induction of PRC2 degradation in human 786-0 cells with defective VHL assessed as reduction of H3K27me3 chromatin mark at 10 uM incubated for 24 hrs by Western blotting analysis; type: cell-based
[25] = molecular target: T1, Protein cereblon/E3 ubiquitin-protein ligase RING2; experiment: PROTAC activity at CRBN/RING1B in human K562 cells assessed as degradation of RING1B mRNA expression at 10 uM incubated for 20 hrs by RT-qPCR analysis; type: cell-based
[26] = molecular target: Protein cereblon/YY1-associated factor 2 (Homo sapiens) (UniProt Q96SW2+Q8IY57); experiment: PROTAC activity at CRBN/YAF in human K562 cells assessed as degradation of YAF protein expression at 1 to 10 uM incubated for 24 hrs by Western blotting analysis; type: cell-based; settings: dose 1-10 µM
[27] = molecular target: T2, Protein cereblon/Histone-lysine N-methyltransferase EZH2 (Homo sapiens); experiment: PROTAC activity at CRBN/EZH2 in human MDA-MB-468 cells assessed as degradation of EZH2 protein expression at 5 uM incubated for 24 hrs by Western blotting analysis; type: cell-based

concentration at 8 h [1]: > 500 nM
Activity [2]: Active
GI50 (K562 [3]): 3.7 µM
Activity [4]: inactive
Activity [5]: inactive
Activity [9]: Active
concentration at 2 h [11]: > 1000 nM
Activity [13]: inactive
Activity [14]: Active
Activity [15]: 100%
Activity [16]: inactive
pKd (Polycomb protein EED): 6.72
Activity [17]: Active
Activity [18]: inactive
Activity [19]: inactive
Activity [20]: inactive
Activity [21]: inactive
Activity [22]: Active
DC50 [23]: 1.7 µM
Activity [25]: inactive
Activity [26]: inactive
Activity [27]: inactive
SMILES: O=C(CNc1cccc2c1C(=O)N(C1CCC(=O)NC1=O)C2=O)NCCCCN1CCN(c2ccc(-c3cnc(NCc4ccco4)n4cnnc34)cc2)CC1 (centres undefined)
inhibition (MDA-MB-468 [6]): Active
Activity (786-0 [7]): Active
Activity (MDA-MB-468 [8]): Active
Activity (K562 [10]): Active
Activity (786-0 [12]): Active
Activity (PC-3M): inactive
Activity (786-0 [24]): inactive
